Results taken from patent publication US20120015907A1, “Furopyridine compounds and uses thereof” (NOVARTIS AG, priority 2010, published 2012).

Biological target: T1, HCV polymerase (Hepatitis C virus genotype 1b, UniProt Q9WMX2)
T1 construct: (His)6 (C)
Assay: biochemical
Conditions: NS5B polymerase IC50 μM, polymerase assay of Biological Example 1

SMILES	IC50 [µM]
CNC(=O)c1c(-c2ccc(C)cc2)oc2nc(N(CCCCP(C)(=O)O)S(C)(=O)=O)c(C3CC3)cc12 [Example 23.99999, 4-(N-(5-cyclopropyl-3-(methylcarbamoyl)-2-p-tolylfuro[2,3-b]pyridin-6-yl)methylsulfonamido)butyl (methyl)phosphinic acid]	0.006

Same assay, conditions: polymerase assay of Biological Example 1; read-out: NS5B polymerase IC50

IC50 [µM]	SMILES
0.043	CNC(=O)c1c(-c2ccc(F)cc2)oc2nc(N(C)S(C)(=O)=O)c(C(C)C(F)(F)F)cc12 (stereo not drawn) [Example 6.1, 2-(4-fluorophenyl)-N-methyl-6-(N-methylmethylsulfonamido)-5-(1,1,1-trifluoropropan-2-yl)furo[2,3-b]pyridine-3-carboxamide]
0.532	CNC(=O)c1c(-c2ccc(F)cc2)oc2nc(N(C)S(C)(=O)=O)c(CCCN)cc12 [Example 15, 5-(3-aminopropyl)-2-(4-fluorophenyl)-N-methyl-6-(N-methylmethylsulfonamido)furo[2,3-b]pyridine-3-carboxamide]
0.06	C#Cc1cc2c(C(=O)NC)c(-c3ccc(F)cc3)oc2nc1N(C)S(C)(=O)=O [Example 7, 5-ethynyl-2-(4-fluorophenyl)-N-methyl-6-(N-methylmethylsulfonamido)furo[2,3-b]pyridine-3-carboxamide]
0.076	CNC(=O)c1c(-c2ccc(F)cc2)oc2nc(N(CCCC(=O)OC)S(C)(=O)=O)c(I)cc12 [Example 18.7, methyl 4-(N-(2-(4-fluorophenyl)-5-iodo-3-(methylcarbamoyl)furo[2,3-b]pyridin-6-yl)methylsulfonamido)butanoate]
0.072	CCc1cc2c(C(=O)NC)c(-c3ccc(F)cc3)oc2nc1N(CCCCOc1ccccc1C#N)S(C)(=O)=O [Example 21.96, 6-(N-(4-(2-cyanophenoxy)butyl)methylsulfonamido)-5-ethyl-2-(4-fluorophenyl)-N-methylfuro[2,3-b]pyridine-3-carboxamide]
0.003	CNC(=O)c1c(-c2ccc(C)cc2)oc2nc(N(CCOCC(C)(C)C(=O)O)S(C)(=O)=O)c(C3CC3)cc12 [Example 41, 3-(2-(N-(5-cyclopropyl-3-(methylcarbamoyl)-2-p-tolylfuro[2,3-b]pyridin-6-yl)methylsulfonamido)ethoxy)-2,2-dimethylpropanoic acid]
0.662	C=C(c1cc2c(C(=O)NC)c(-c3ccc(F)cc3)oc2nc1N(C)S(C)(=O)=O)C(F)(F)F [Example 2.5, 2-(4-fluorophenyl)-N-methyl-6-(N-methylmethylsulfonamido)-5-(3,3,3-trifluoroprop-1-en-2-yl)furo[2,3-b]pyridine-3-carboxamide]
1.02	CNC(=O)c1c(-c2ccc(F)cc2)oc2nc(N(CC3CCCN(C(=O)OC(C)(C)C)C3)S(C)(=O)=O)c(I)cc12 (stereo not drawn) [Example 18.92, tert-butyl 3-((N-(2-(4-fluorophenyl)-5-iodo-3-(methylcarbamoyl)furo[2,3-b]pyridin-6-yl)methylsulfonamido)methyl)piperidine-1-carboxylate]
0.003	CCc1ccc(-c2oc3nc(N(CCCC[C@@H](COC)C(=O)O)S(C)(=O)=O)c(C4CC4)cc3c2C(=O)NC)cc1 [Example 47.4, (S)-6-(N-(5-Cyclopropyl-2-(4-ethylphenyl)-3-(methylcarbamoyl)furo[2,3-b]pyridin-6-yl)methylsulfonamido)-2-(methoxymethyl)hexanoic acid]
0.002	CCc1ccc(-c2oc3nc(N(CCOCC(C)(C)C(=O)O)S(C)(=O)=O)c(C4CC4)cc3c2C(=O)NC)cc1 [Example 41.1, 3-(2-(N-(5-Cyclopropyl-2-(4-ethylphenyl)-3-(methylcarbamoyl)furo[2,3-b]pyridin-6-yl)methylsulfonamido)ethoxy)-2,2-dimethylpropanoic acid]
0.117	CNC(=O)c1c(-c2ccc(C)cc2)oc2nc(N(C)S(C)(=O)=O)c(CC(O)CO)cc12 (stereo not drawn) [Example 9.1, 5-(2,3-dihydroxypropyl)-N-methyl-6-(N-methylmethylsulfonamido)-2-p-tolylfuro[2,3-b]pyridine-3-carboxamide]
0.001	CCc1ccc(-c2oc3nc(N(CCCC(C)(C)C(=O)O)S(C)(=O)=O)c(C4CC4)cc3c2C(=O)NC)cc1 [Example 29, 5-{[5-Cyclopropyl-2-(4-ethyl-phenyl)-3-methylcarbamoyl-furo[2,3-b]pyridin-6-yl]-methanesulfonyl-amino}-2,2-dimethyl-pentanoic acid]
0.231	CNC(=O)c1c(-c2ccc(F)cc2)oc2nc3c(cc12)C(C)CCN3S(C)(=O)=O (stereo not drawn) [Example 36.6, 2-(4-fluorophenyl)-N,5-dimethyl-8-(methylsulfonyl)-5,6,7,8-tetrahydrofuro[2,3-b][1,8]naphthyridine-3-carboxamide]
0.002	CCc1ccc(-c2oc3nc(N(CCCCCC(=O)O)S(C)(=O)=O)c(C4CC4)cc3c2C(=O)NC)cc1 [Example 29.9, 6-(N-(5-cyclopropyl-2-(4-ethylphenyl)-3-(methylcarbamoyl)furo[2,3-b]pyridin-6-yl)methylsulfonamido) hexanoic acid]
0.004	CNC(=O)c1c(-c2ccc(C)cc2)oc2nc(N(CCC[C@@H](C)C(=O)N[C@H](C(=O)OC)c3ccccc3)S(C)(=O)=O)c(C3CC3)cc12 [Example 29.99997, (S)-methyl 2-((R)-5-(N-(5-cyclopropyl-3-(methylcarbamoyl)-2-p-tolylfuro[2,3-b]pyridin-6-yl)methylsulfonamido)-2-methylpentanamido)-2-phenylacetate]
0.048	CNC(=O)c1c(-c2ccc(C)cc2)oc2nc(N(CCCCC(=O)O)S(C)(=O)=O)c(CCO)cc12 [Example 29.999997, 5-(N-(5-(2-hydroxyethyl)-3-(methylcarbamoyl)-2-p-tolylfuro[2,3-b]pyridin-6-yl)methylsulfonamido) pentanoic acid]
0.003	CCc1ccc(-c2oc3nc(N(CCCC(C)(OC)C(=O)O)S(C)(=O)=O)c(C4CC4)cc3c2C(=O)NC)cc1 (stereo not drawn) [Example 29.9991, 5-(N-(5-cyclopropyl-2-(4-ethylphenyl)-3-(methylcarbamoyl)furo[2,3-b]pyridin-6-yl)methylsulfonamido)-2-methoxy-2-methylpentanoic acid]
0.006	CNC(=O)c1c(-c2ccc(C)cc2)oc2nc(N(CCC3CCCC3C(=O)O)S(C)(=O)=O)c(C3CC3)cc12 (stereo not drawn) [Example 29.3, 2-(2-(N-(5-cyclopropyl-3-(methylcarbamoyl)-2-p-tolylfuro[2,3-b]pyridin-6-yl)methylsulfonamido)ethyl) cyclopentanecarboxylic acid]
0.012	CNC(=O)c1c(-c2ccc(F)cc2)oc2nc(N(CCCC(C)(C)C(=O)O)S(C)(=O)=O)c(C3CC3)cc12 [Example 27.1, 5-(N-(5-cyclopropyl-2-(4-fluorophenyl)-3-(methylcarbamoyl)furo[2,3-6]pyridin-6-yl)methylsulfonamido)-2,2-dimethylpentanoic acid]
0.169	CCc1cc2c(C(=O)NC)c(-c3ccc(F)cc3)oc2nc1N(CCc1scnc1C)S(C)(=O)=O [Example 22, 5-ethyl-2-(4-fluorophenyl)-N-methyl-6-(N-(2-(4-methylthiazol-5-yl)ethyl)methylsulfonamido)furo[2,3-b]pyridine-3-carboxamide]
0.034	CCOC(=O)CCCCc1cc2c(C(=O)NC)c(-c3ccc(F)cc3)oc2nc1N(C)S(C)(=O)=O [Example 3, Ethyl 5-(2-(4-fluorophenyl)-3-(methylcarbamoyl)-6-(N-methylmethylsulfonamido)furo[2,3-b]pyridin-5-yl)pentanoate]
0.509	CNC(=O)c1c(-c2ccc(F)cc2)oc2nc3c(cc12)C(C)C(O)CCCCN3S(C)(=O)=O (stereo not drawn) [Example 38, 2-(4-Fluoro-phenyl)-6-hydroxy-11-methanesulfonyl-5-methyl-6,7,8,9,10,11-hexahydro-5H-1-oxa-11,12-diaza-cyclonona[f]indene-3-carboxylic acid methylamide]
0.948	CCc1cc2c(C(=O)NC)c(-c3ccc(F)cc3)oc2nc1N(C[C@@H](C)Cc1ccc(OC)nc1)S(C)(=O)=O [Example 21.6, (S)-5-ethyl-2-(4-fluorophenyl)-6-(N-(3-(6-methoxypyridin-3-yl)-2-methylpropyl)methylsulfonamido)-N-methylfuro[2,3-b]pyridine-3-carboxamide]
0.061	CCc1cc2c(C(=O)NC)c(-c3ccc(F)cc3)oc2nc1N(CCCS(=O)(=O)C1CC1)S(C)(=O)=O [Example 23.991, 6-(N-(3-(cyclopropylsulfonyl)propyl)methylsulfonamido)-5-ethyl-2-(4-fluorophenyl)-N-methylfuro[2,3-b]pyridine-3-carboxamide]
0.451	CNC(=O)c1c(-c2ccc(F)cc2)oc2nc(N(CCO)S(C)(=O)=O)c(I)cc12 [Example 18.1, 2-(4-fluorophenyl)-6-(N-(2-hydroxyethyl)methylsulfonamido)-5-iodo-N-methylfuro[2,3-b]pyridine-3-carboxamide]
0.002	CNC(=O)c1c(-c2ccc(C)cc2)oc2nc(N(CCCC(CC#N)C(=O)O)S(C)(=O)=O)c(C3CC3)cc12 (stereo not drawn) [Example 29.9999, 2-(cyanomethyl)-5-(N-(5-cyclopropyl-3-(methylcarbamoyl)-2-p-tolylfuro[2,3-b]pyridin-6-yl)methylsulfonamido) pentanoic acid]
0.01	CCc1cc2c(C(=O)NC)c(-c3ccc(F)cc3)oc2nc1N(CCCCC(=O)OC)S(C)(=O)=O [Example 21, methyl 5-(N-(5-ethyl-2-(4-fluorophenyl)-3-(methylcarbamoyl)furo[2,3-b]pyridin-6-yl)methylsulfonamido)pentanoate]
0.021	CNC(=O)c1c(-c2ccc(C)cc2)oc2nc(N(CCCCC(=O)NCCCC(=O)O)S(C)(=O)=O)c(C3CC3)cc12 [Example 29.99999, 4-(5-(N-(5-cyclopropyl-3-(methylcarbamoyl)-2-p-tolylfuro[2,3-b]pyridin-6-yl)methylsulfonamido)pentanamido)butanoic acid]
0.273	CNC(=O)c1c(-c2ccc(F)cc2)oc2nc(N(C)S(C)(=O)=O)c(/C=C/C#N)cc12 [Example 13, (E)-5-(2-cyanovinyl)-2-(4-fluorophenyl)-N-methyl-6-(N-methylmethylsulfonamido)furo[2,3-b]pyridine-3-carboxamide]
